# Source: patent publication US12123051B2, “Nucleic acid ratio determination” (priority 2017, dated 2024)
# Like-named read-outs stand apart in the source and are kept apart here.
# How the values were obtained:
# Format in all cases: cell-based
# [1] = test system: Chlamydia trachomatis strains 1-5; assay: Minimum inhibitory concentration (MIC) of antibiotics, predetermined by standard procedures
# Method: After infection, there was no change of media at the 4 h time point. Once in an exponential growth phase, 20 hours PI, cells were treated with a single dose of different antibiotics. […] Strains used for this treatment protocol were Strain 1) serovar D lab strain (UW-3/Cx), Strain 2) serovar L2 wild type lab strain (434/Bu), Strain 3) serovar L2 lab created mutant strain, resistant to trimethoprim, Strain 4) serovar L2 lab created mutant strain, resistant to Spectinomycin and Strain 5) serovar L2 lab created mutant strain, resistant to Rifampicin. MIC for all serovars and each antibiotic was predetermined, using standard procedures documented in literature, and listed in the table below. […] Strains 1, 2, 3 and 4 are also susceptible to rifampicin, whilst strain 5 is resistant to that same antibiotic. Samples were then incubated at 37° C. with 5% CO2 and harvested at 1 hour PT, using SPG buffer and extracted immediately. Two biological replicates were obtained for each condition.
# [2] = test system: Chlamydia trachomatis (serovar D) in HEp-2 cells; assay: Antibiotic susceptibility testing by VITA PCR, azithromycin, Treatment Protocol B; details: Example 7: 0.128 μg/mL at 24 h PI
# Method: The levels of GAT and NED were estimated and used to calculate VITA Index.
# (§1) The ΔCt was calculated as the differences between the Ct values of the NED and GAT1/2 signals.
# To measure NED, another region of Chlamydia DNA was co-amplified in the same RT-PCR using primers targeting a region of genomic DNA which is not transcribed. The levels of GAT and NED were estimated and used to calculate VITA Index.
# as §1
# [3] = test system: Chlamydia trachomatis strains 1-5 in HEp-2 cells; details: 1 hour PT
# Method: After infection, there was no change of media at the 4 h time point. Once in an exponential growth phase, 20 hours PI, cells were treated with a single dose of different antibiotics. […] Strains used for this treatment protocol were Strain 1) serovar D lab strain (UW-3/Cx), Strain 2) serovar L2 wild type lab strain (434/Bu), Strain 3) serovar L2 lab created mutant strain, resistant to trimethoprim, Strain 4) serovar L2 lab created mutant strain, resistant to Spectinomycin and Strain 5) serovar L2 lab created mutant strain, resistant to Rifampicin. […] Samples were then incubated at 37° C. with 5% CO2 and harvested at 1 hour PT, using SPG buffer and extracted immediately. Two biological replicates were obtained for each condition.
# The following example analyses the susceptibility of bacteria to a given drug, by estimation of the change of GAT levels relative to NED in TNA samples. These were then compared between samples treated with antibiotic and not treated (control). […] Treatment was as described in example 1, Treatment E (1.1.5). To obtain a measure GAT, Chlamydia DNA and RNA was amplified by RT-PCR using primers targeting two different locations of the omp1 gene and its transcripts. To measure NED, another region of Chlamydia DNA was co-amplified in the same RT-PCR using primers targeting a region of genomic DNA which is not transcribed. The levels of GAT and NED were estimated and used to calculate VITA Index. Further to this the VITA Indices of treated and untreated samples were used to calculate the ΔVITA Ratio.
# Partzyme oligonucleotides, Reporter substrates and PCR primers used for amplification and detection of GAT1, GAT2 and NED were as per example 9 (9.1, 9.2 and 9.3 respectively). The RT-PCR conditions used were as described in Example 9 (9.5) and reactions contained either 5 μL of TNA template (1/1000 dilution) or no target (dH2O).
# (§2) Chlamydia DNA and RNA from 2 GAT regions and one NED region, were co-amplified and detected in single RT-PCR from TNA extracted from chlamydia cultures. These cultures were treated with antibiotic or left untreated (control) at an exponential growth phase and harvested at 1 hour post treatment. […] The ΔCt was calculated as the differences between the Ct values of the NED and GAT1/2 signals.
# The following example analyses the susceptibility of bacteria to a given drug, by estimation of the change of GAT levels relative to NED in TNA samples. These were then compared between samples treated with antibiotic and not treated (control). […] To obtain a measure GAT, Chlamydia DNA and RNA was amplified by RT-PCR using primers targeting two different locations of the omp1 gene and its transcripts. To measure NED, another region of Chlamydia DNA was co-amplified in the same RT-PCR using primers targeting a region of genomic DNA which is not transcribed. The levels of GAT and NED were estimated and used to calculate VITA Index. Further to this the VITA Indices of treated and untreated samples were used to calculate the ΔVITA.
# as §2, with “antibiotic (Rifampicin)” for “antibiotic”, “(control) during the” for “(control) at an”, “at one” for “at 1”
# [4] = test system: Chlamydia trachomatis strain 1 and strain 5 in HEp-2 cells; assay: Antibiotic susceptibility testing by VITA PCR, rifampicin, short incubation, Treatment Protocol C; details: for ΔVITA Ratio A/B: 0.256 μg/mL; for VITA Index: plus antibiotic 0.256 μg/mL
# Method: After infection, there was no change of media at the 4 hour time point, essentially creating an unsynchronised population, which would be more similar to in vivo conditions. Once at an exponential growth phase, 20 hours PI, treatment was applied. This was achieved by replacing the DMEM for each well, with addition of either i) no antibiotic, or ii) antibiotic (0.256 μg/mL of Rifampicin). Samples were then either incubated at 37° C. with 5% CO2, and harvested after 5 minutes PT; or incubated at room temperature and harvested after 15 minutes PT. SPG buffer was used for harvest and TNA was extracted immediately after. Strains used for this treatment protocol were Strain 1) serovar D lab strain (UW-3/Cx), susceptible to rifampicin, and Strain 5) serovar L2 lab created mutant strain, resistant to Rifampicin.
# The following example estimates the change of GAT levels relative to NED in TNA samples extracted from HEp-2 cells which had been infected with Chlamydia trachomatis strain 1 and strain 5 (serovar D lab strain and serovar L2 strain resistant to rifampicin respectively). TNA was extracted from cells, which had been either treated with the antibiotic Rifampicin at a concentration of 0.256 μg/mL, or not treated (control), at 20 hours post infection whilst in an exponential growth phase. Treatment was as described in example 1, Treatment C (1.1.3). To obtain a measure GAT, Chlamydia DNA and RNA was amplified by RT-PCR using primers targeting two different locations of the omp1 gene and its transcripts. To measure NED, another region of Chlamydia DNA was co-amplified in the same RT-PCR using primers targeting a region of genomic DNA which is not transcribed. The levels of GAT and NED were estimated and used to calculate VITA Index. Further to this the VITA Indices of treated and untreated samples were used to calculate the ΔVITA Ratio.
# The reactions contained either 5 μL of TNA template (1/1000 dilution) or no target (dH2O).
# Chlamydia DNA and RNA from 2 regions within the omp1 gene and transcripts (GAT1 and GAT2), and one NED region, were co-amplified and detected in single RT-PCR from TNA extracted from chlamydia cultures. These cultures were treated with antibiotic or left untreated (control) at an exponential growth phase. They were incubated for either 5 minutes at 37° C. (FIG. 7D) or 15 minutes at room temperature (FIG. 7E). […] The results were then compared between no treatment reactions (control) and those treated with antibiotic at each time point (FIGS. 7D-E).
# [5] = Strain 1, serovar D lab strain (UW-3/Cx)
# [6] = Strain 2, serovar L2 wild type lab strain (434/Bu)
# [7] = Strain 3, serovar L2 mutant resistant to trimethoprim
# [8] = Strain 4, serovar L2 mutant resistant to Spectinomycin
# [9] = Strain 5, serovar L2 mutant resistant to Rifampicin
# [10] = Resistant strain (strain 5), 5 min incubation PT at 37° C. with 5% CO2
# [11] = Resistant strain (strain 5), 15 min incubation PT at room temperature
# [12] = Susceptible strain (strain 1), 5 min incubation PT at 37° C. with 5% CO2
# [13] = Susceptible strain (strain 1), 15 min incubation PT at room temperature
structure (smiles),measurement,setting,value
CC[C@H]1OC(=O)[C@H](C)[C@@H](O[C@H]2C[C@@](C)(OC)[C@@H](O)[C@H](C)O2)[C@H](C)[C@@H](O[C@@H]2O[C@H](C)C[C@H](N(C)C)[C@H]2O)[C@](C)(O)C[C@@H](C)CN(C)[C@H](C)[C@@H](O)[C@]1(C)O [Azithromycin],"Minimum inhibitory concentration (MIC), antibiotic dose",[1]; [5],0.032 µg/mL
same,"Minimum inhibitory concentration (MIC), antibiotic dose",[1]; [6],0.032 µg/mL
same,"Minimum inhibitory concentration (MIC), antibiotic dose",[1]; [7],0.016 µg/mL
same,"Minimum inhibitory concentration (MIC), antibiotic dose",[1]; [8],0.016 µg/mL
same,"Minimum inhibitory concentration (MIC), antibiotic dose",[1]; [9],0.032 µg/mL
same,Susceptibility according to the MIC analysis,[1]; all strains used,susceptible
same,ΔVITA A/B (no antibiotic / plus antibiotic),[2]; 1 h PT,3.77
same,ΔVITA A/B (no antibiotic / plus antibiotic),[2]; 6 h PT,2.12
C[C@H]1c2cccc(O)c2C(=O)C2=C(O)[C@]3(O)C(=O)C(C(N)=O)=C(O)[C@@H](N(C)C)[C@@H]3[C@@H](O)[C@@H]21 [Doxycycline],"Minimum inhibitory concentration (MIC), antibiotic dose",[1]; [5],0.128 µg/mL
same,"Minimum inhibitory concentration (MIC), antibiotic dose",[1]; [6],0.064 µg/mL
same,"Minimum inhibitory concentration (MIC), antibiotic dose",[1]; [7],0.032 µg/mL
same,"Minimum inhibitory concentration (MIC), antibiotic dose",[1]; [8],0.064 µg/mL
same,"Minimum inhibitory concentration (MIC), antibiotic dose",[1]; [9],0.064 µg/mL
same,ΔVITA Ratio A/B,"[3]; Table 12b: Strain 1, 0.256 μg/mL",1.48
same,VITA Index,"[3]; Table 12b: Strain 1, plus antibiotic 0.256 μg/mL",2.80
same,ΔVITA Ratio A/B,"[3]; Table 12b: Strain 2, 0.256 μg/mL",1.24
same,VITA Index,"[3]; Table 12b: Strain 2, plus antibiotic 0.256 μg/mL",3.92
same,ΔVITA Ratio A/B,"[3]; Table 12b: Strain 3, 0.256 μg/mL",1.32
same,VITA Index,"[3]; Table 12b: Strain 3, plus antibiotic 0.256 μg/mL",5.64
same,ΔVITA Ratio A/B,"[3]; Table 12b: Strain 5, 0.256 μg/mL",1.43
same,VITA Index,"[3]; Table 12b: Strain 5, plus antibiotic 0.256 μg/mL",5.01
CO[C@H]1/C=C/O[C@@]2(C)Oc3c(C)c(O)c4c(O)c(c(/C=N/N5CCN(C)CC5)c(O)c4c3C2=O)NC(=O)/C(C)=C\C=C\[C@H](C)[C@H](O)[C@@H](C)[C@@H](O)[C@@H](C)[C@H](OC(C)=O)[C@@H]1C [Rifampicin],"Minimum inhibitory concentration (MIC), antibiotic dose",[1]; [5],0.008 µg/mL
same,"Minimum inhibitory concentration (MIC), antibiotic dose",[1]; [6],0.004 µg/mL
same,"Minimum inhibitory concentration (MIC), antibiotic dose",[1]; [7],0.004 µg/mL
same,"Minimum inhibitory concentration (MIC), antibiotic dose",[1]; [8],0.004 µg/mL
same,"Minimum inhibitory concentration (MIC), antibiotic dose",[1]; [9],8.192 µg/mL
same,ΔVITA Ratio A/B,[4]; [10],1.07
same,ΔVITA Ratio A/B,[4]; [11],0.91
same,VITA Index,[4]; [10],11.18
same,VITA Index,[4]; [11],11.41
same,ΔVITA Ratio A/B,[4]; [12],1.90
same,ΔVITA Ratio A/B,[4]; [13],1.80
same,VITA Index,[4]; [12],4.69
same,VITA Index,[4]; [13],4.41
same,ΔVITA Ratio A/B,"[3]; Table 13: Strain 1, 0.256 μg/mL",3.54
same,VITA Index,"[3]; Table 13: Strain 1, plus antibiotic 0.256 μg/mL",1.17
same,ΔVITA Ratio A/B,"[3]; Table 13: Strain 2, 0.256 μg/mL",2.93
same,VITA Index,"[3]; Table 13: Strain 2, plus antibiotic 0.256 μg/mL",1.66
same,ΔVITA Ratio A/B,"[3]; Table 13: Strain 3, 0.256 μg/mL",4.70
same,VITA Index,"[3]; Table 13: Strain 3, plus antibiotic 0.256 μg/mL",1.58
same,ΔVITA Ratio A/B,"[3]; Table 13: Strain 4, 0.256 μg/mL",5.86
same,VITA Index,"[3]; Table 13: Strain 4, plus antibiotic 0.256 μg/mL",1.68
same,ΔVITA Ratio A/B,"[3]; Table 13: Strain 5 (Rifampicin resistant), 0.256 μg/mL",1.06
same,VITA Index,"[3]; Table 13: Strain 5 (Rifampicin resistant), plus antibiotic 0.256 μg/mL",6.71
